# Assay results reported in patent publication US7163923B2, “Peptide deformylase activated prodrugs” (Celmed Oncology (USA), Inc., priority 2001, dated 2007).
# Like-named read-outs stand apart in the source and are kept apart here.
# Columns and labels:
# [1] = test system: E. coli; test: MIC susceptibility testing (modified NCCLS, 384-well); type: cell-based
# Description: (§1) The NCCLS (National Committee for Clinical Laboratory Standards), method to determine MIC's of antimicrobial compounds is modified for high-throughput screening. All stocks of tested compounds are prepared in either water or in DMSO depending on solubility. At the highest concentration, DMSO content should not exceed 0.5%. Briefly, twenty 2-fold serial dilutions of test compounds from the highest concentration are made in a 384-well microtiter plate. Each well is inoculated with testing bacteria in broth to a final concentration of approximately 1–1.5×10^6 cells/ml. Bacterial growth is determined by the increase of optical density at 600 nm using a microplate reader (Tecan SpectraFluor Plus). The MIC is defined as the lowest concentration at which bacterial growth (equivalent to visible growth) was inhibited after 16 to 18 hours of incubation at the appropriate temperature required for the bacteria growth.
# E. coli/TEM—E. coli expressing TEM-1 beta-lactamase; MRSA—Methicillin Resistant S. Aureus; MSSA—Methicillin Sensitive S. Aureus
# [2] = test system: S. aureus; test: as above; type: cell-based; conditions: Staphylococcus aureus, read-out: MIC
# Description: as §1
# Using the assay provided above, the potency of NB2046 was compared to triclosan.
structure (smiles),measurement,setting,value
"CSCCC(NC=O)C(=O)NC(CC(C)C)C(=O)Oc1cc(Cl)ccc1Oc1ccc(Cl)cc1Cl (stereo not drawn) [NB2046, 2-(2-formylamino-4-methylsulfanyl-butyrylamino)-4-methyl-pentanoic acid 5-chloro-2-(2,4-dichloro-phenoxy)-phenyl ester]",MIC,"[1]; E. coli, Exp. #2, Table 4",16000 ng/mL
same,MIC,"[1]; E. coli/Tem-1 (expressing TEM-1 beta-lactamase), Exp. #1, Table 4",16000 ng/mL
same,MIC,"[1]; E. coli/Tem-1 (expressing TEM-1 beta-lactamase), Exp. #2, Table 4",16000 ng/mL
same,MIC,"[1]; Escherichia coli, E. coli, Exp. #1, Table 4, read-out: MIC",16000 ng/mL
same,MIC,"[2]; ATCC11632, S. aureus ATCC 11632, Exp. #1, Table 3",≤ 125 ng/mL
same,MIC,"[2]; ATCC11632, S. aureus ATCC 11632, Exp. #2, Table 3",≤ 125 ng/mL
same,MIC,"[2]; ATCC 11632 / MSSA, MSSA ATCC 11632, Exp. #1, Table 4",32000 ng/mL
same,MIC,"[2]; ATCC 11632 / MSSA, MSSA ATCC 11632, Exp. #2, Table 4",16000 ng/mL
same,MIC,"[2]; ATCC 11632 / MSSA, MSSA ATCC 11632, Table 5",0.977 ng/mL
same,MIC,"[2]; ATCC13301, S. aureus ATCC 13301, Exp. #1, Table 3",≤ 125 ng/mL
same,MIC,"[2]; ATCC13301, S. aureus ATCC 13301, Exp. #2, Table 3",≤ 125 ng/mL
same,MIC,"[2]; ATCC 13301 / MSSA, MSSA ATCC 13301, Table 5",0.015 ng/mL
same,MIC,"[2]; ATCC14154, S. aureus ATCC 14154, Exp. #1, Table 3",≤ 125 ng/mL
same,MIC,"[2]; ATCC14154, S. aureus ATCC 14154, Exp. #2, Table 3",≤ 125 ng/mL
same,MIC,"[2]; ATCC 14154 / MSSA, MSSA ATCC 14154, Table 5",0.977 ng/mL
same,MIC,"[2]; ATCC33591, S. aureus ATCC 33591, Exp. #1, Table 3",≤ 125 ng/mL
same,MIC,"[2]; ATCC33591, S. aureus ATCC 33591, Exp. #2, Table 3",≤ 125 ng/mL
same,MIC,"[2]; ATCC 33591 / MSSA, MSSA ATCC 33591, Table 5",15.6 ng/mL
same,MIC,"[2]; ATCC33592, S. aureus ATCC 33592, Exp. #1, Table 3",≤ 125 ng/mL
same,MIC,"[2]; ATCC33592, S. aureus ATCC 33592, Exp. #2, Table 3",≤ 125 ng/mL
same,MIC,"[2]; ATCC 33592 / MSSA, MSSA ATCC 33592, Table 5",0.488 ng/mL
same,MIC,"[2]; ATCC33593, S. aureus ATCC 33593, Exp. #1, Table 3",≤ 125 ng/mL
same,MIC,"[2]; ATCC33593, S. aureus ATCC 33593, Exp. #2, Table 3",≤ 125 ng/mL
same,MIC,"[2]; ATCC 33593 / MSSA, MSSA ATCC 33593, Table 5",0.488 ng/mL
same,MIC,"[2]; ATCC 33594 / MSSA, MSSA ATCC 33594, Exp. #1, Table 4",≤ 125 ng/mL
same,MIC,"[2]; ATCC 33594 / MSSA, MSSA ATCC 33594, Exp. #2, Table 4",≤ 125 ng/mL
same,MIC,"[2]; ATCC43300, S. aureus ATCC 43300, Exp. #1, Table 3",≤ 125 ng/mL
same,MIC,"[2]; ATCC43300, S. aureus ATCC 43300, Exp. #2, Table 3",≤ 125 ng/mL
same,MIC,"[2]; ATCC 43300 / MSSA, MSSA ATCC 43300, Table 5",0.977 ng/mL
same,MIC,"[2]; ATCC700260, S. aureus ATCC 700260, Exp. #1, Table 3",≤ 125 ng/mL
same,MIC,"[2]; ATCC700260, S. aureus ATCC 700260, Exp. #2, Table 3",≤ 125 ng/mL
same,MIC,"[2]; ATCC 700260 / MSSA, MSSA ATCC 700260, Exp. #1, Table 4",≤ 125 ng/mL
same,MIC,"[2]; ATCC 700260 / MSSA, MSSA ATCC 700260, Exp. #2, Table 4",4000 ng/mL
same,MIC,"[2]; ATCC 700260 / MSSA, MSSA ATCC 700260, Table 5",0.031 ng/mL
same,MIC,"[2]; ATCC700698, S. aureus ATCC 700698, Exp. #1, Table 3",≤ 125 ng/mL
same,MIC,"[2]; ATCC700698, S. aureus ATCC 700698, Exp. #2, Table 3",≤ 125 ng/mL
same,MIC,"[2]; ATCC 700698 / MSSA, MSSA ATCC 700698, Table 5",3.91 ng/mL
same,MIC,"[2]; ATCC700699, S. aureus ATCC 700699, Exp. #1, Table 3",16000 ng/mL
same,MIC,"[2]; ATCC700699, S. aureus ATCC 700699, Exp. #2, Table 3",8000 ng/mL
same,MIC,"[2]; ATCC 700699 / MRSA, MRSA ATCC 700699, Exp. #1, Table 4",32000 ng/mL
same,MIC,"[2]; ATCC 700699 / MRSA, MRSA ATCC 700699, Exp. #2, Table 4",32000 ng/mL
same,MIC,"[2]; ATCC 700699 / MSSA, MSSA ATCC 700699, Table 5",≥ 4000 ng/mL
same,MIC,"[2]; ATCC700787, S. aureus ATCC 700787, Exp. #1, Table 3",≤ 125 ng/mL
same,MIC,"[2]; ATCC700787, S. aureus ATCC 700787, Exp. #2, Table 3",≤ 125 ng/mL
same,MIC,"[2]; ATCC 700787 / MSSA, MSSA ATCC 700787, Table 5",7.81 ng/mL
same,MIC,"[2]; ATCC700788, S. aureus ATCC 700788, Exp. #1, Table 3",≤ 125 ng/mL
same,MIC,"[2]; ATCC700788, S. aureus ATCC 700788, Exp. #2, Table 3",≤ 125 ng/mL
same,MIC,"[2]; ATCC 700788 / MSSA, MSSA ATCC 700788, Table 5",62.5 ng/mL
same,MIC,"[2]; ATCC700789, S. aureus ATCC 700789, Exp. #1, Table 3",≤ 125 ng/mL
same,MIC,"[2]; ATCC700789, S. aureus ATCC 700789, Exp. #2, Table 3",≤ 125 ng/mL
same,MIC,"[2]; ATCC 700789 / MSSA, MSSA ATCC 700789, Table 5",15.6 ng/mL
